Laboratory results from US5733719A, “Method of making an assay compound” (priority 1995, dated 1998).
Structures can show the parent of a compound that is named as a salt. Values belong to the molecule of their own block, whether it stands above or below them.

Experiments:
[1] = Native free fluorescence; type: physicochemical
From the text: Assays for peptidases using assay compounds generate fluorescence generally in the range of 10^-5 to 10^-6 Molar free rhodamine 110. Therefore, it is preferred that the free rhodamine 110 and blocked peptide impurities in the assay reagent should be removed to a concentration of less than the fluorescence generated by about 1×10^-6 M and more preferably less than the fluorescence generated by about 10^-7 Molar free indicator group. This amounts to a 100,000 photon count using rhodamine 110 as a standard at 10^-7 -10^-8 M, preferably 5×10^-8 M in a 1 cm path length cuvette when measured over 10 min. on a photon counting spectrofluorometer manufactured by the SLM Company of Chicago, Ill. This corresponds to a use level on the flow cytometer where no cellular false positive can be detected for a 10 minute period at the highest sensitivity setting. […] The presence of impurities causes a decrease in the storage stability of the compound, resulting in an increased autohydrolysis which leads to increased background fluorescence. A compound should be free of impurities such that when the compound (or reagent containing the compound) is stored at 4° C. for 30 days, preferably 90 days, more preferably 180 days, most preferably one year, the background fluorescence increases less than 10%, preferably less than 5%, most preferably less than 1% over these time periods, respectively. […]

[2] = Effect of sodium chloride on dipeptide reagent; details: 7mM, pH range of 6.5 to 8.7
From the text: Inhibitors and poisons (or toxins) are components that can be added to reduce the activity of non-targeted enzymes that provide competing reactions for the leaving group. Inhibitors are usually very selective for a particular enzyme. For example, EDTA only works with enzymes requiring Ca^+2, Mg^+2 and some other metals. […] Preferred inhibitors for particular enzymes are included in Table 1.

[3] = system: Lymphs; experiment: Peptidases to distinguish leukemia from non-leukemia, lymphocytes; type: cell-based, human; set-up: unit not given here
From the text: (§1) Artificial intelligence was used to analyze data of cellular enzyme functions, and determine normal and disease states. Peptidases were used to distinguish leukemia from non-leukemia (output pattern). For input patterns lymphocyte and granulocyte cell types were used with aminopeptidases, cathepsins and dipeptidylpeptidase enzyme activities. In this Example, illustrated in Tables 6A-6C, three normals and three leukemia patients were used as known output patterns for the neural network to learn (in practice, the larger the learning set the more accurate unknown prediction will be). Unknowns were then presented to the learned algorithm as shown in the test case examples. Clinical diagnosis was confirmed by physicians. The trained neural network was able to correctly classify the leukemia from the non-leukemia.

[4] = system: Grans; experiment: Peptidases to distinguish leukemia from non-leukemia, granulocytes; type: cell-based, human; set-up: unit not given here
From the text: as §1

[5] = system: enzyme; experiment: Effect of dithioerythritol (DTE) on substrate sensitivity; details: dithioerythritol (DTE) at 1 mM
From the text: Modulators are components used to […] the sensitivity of the enzyme for the leaving group. The modulators speed up or slow down the activity of an enzyme by changing the active site. […] Preferred modulators for particular enzymes are included in Table 1.

[6] = system: aminopeptidase; experiment: Inhibition of aminopeptidase reaction with (H-L-Asp)2 rhodamine 110; type: biochemical; details: approximately 10 mM
From the text: The chemical nature of the buffer is important to the reactivity of the assay compound with the cellular enzymes. […] In addition, the assay compound hydrolysis by the enzyme occurs at an increased rate of reaction.

[7] = system: cells; details: even when buffered
[8] = system: acute lympholytic Ficoll prepared lymphocytes; experiment: Amino peptidase activity in acute lymphocytic leukemia lymphocytes; type: cell-based; details: FIG. 4B, log fluorescence at 525 nm v. time
From the text: The cell's ability to fight off an invader lies within its genetics and therefore cell type. The "readiness" however of any genetically capable group of cells to defend is different. A measure of this "readiness" is manifest in the available proteolytic enzymes contained within vacuoles or on the surface of the cell. The assay compound hydrolysis rate increases with increased mass of enzymes giving a picture of immune competence both in number of cells and activity level. […] Images were generated using Universal Imaging.

SMILES: CC(C)C[C@H](N)C(=O)NCC(=O)Nc1ccc2c(c1)Oc1cc(NC(=O)CNC(=O)[C@@H](N)CC(C)C)ccc1C21OC(=O)c2ccccc21 [tartrate salt of (LeuGly)2 rhodamine 110, (H--L--Leu--Gly)2 Rho 110-2Tartrate]
native free fluorescence [1]: 61,000 photons

SMILES: [Cl-].[Na+] [sodium chloride]
inhibitory effect on dipeptide reagent [2]: slightly inhibitory effect

effect of DTE on sensitivity [5]: decreases the sensitivity
SMILES: NCC(=O)Nc1ccc2c(c1)Oc1cc(NC(=O)CN)ccc1C21OC(=O)c2ccccc21 [GLY, (Gly)2 Rho 110]
enzyme activity ([3]; J4 11/21/91 acute leuk.): 14.02
enzyme activity ([3]; J4 12/2/91 AL): 27.32
enzyme activity ([3]; J4 12/3/91 acute leuk.): 31.51
enzyme activity ([3]; J5 11/27/91 AML): 28.36
enzyme activity ([3]; J19 11/27/91 CLL): 11.39
enzyme activity ([3]; J22 12/2/91 AML): 24.50
enzyme activity ([3]; J22 12/9/91 AML): 27.14
enzyme activity ([3]; N99° normal): 30.68
enzyme activity ([3]; N191 normal): 43.57
enzyme activity ([3]; N192 normal): 37.47
enzyme activity ([3]; N193 normal): 39.30
enzyme activity ([3]; N194 normal): 39.76
enzyme activity ([3]; N195 normal): 48.18
enzyme activity ([3]; N197 normal): 42.96
enzyme activity ([3]; N200 normal): 42.28
enzyme activity ([3]; N201 normal): 45.32
enzyme activity ([3]; N202 normal): 44.55
enzyme activity ([3]; N206 normal): 55.56
enzyme activity ([3]; P68 tachycardia): 59.29
enzyme activity ([3]; P69 pancreatic CA): 67.38
enzyme activity ([3]; P70 cirrhosis/hemobilia): 54.84
enzyme activity ([3]; P71 ac. pyelonephritis): 41.93
enzyme activity ([4]; J4 11/21/91 acute leuk.): 27.79
enzyme activity ([4]; J4 12/2/91 AL): 47.74
enzyme activity ([4]; J4 12/3/91 acute leuk.): 48.53
enzyme activity ([4]; J5 11/27/91 AML): 56.33
enzyme activity ([4]; J19 11/27/91 CLL): 48.80
enzyme activity ([4]; J22 12/2/91 AML): 34.02
enzyme activity ([4]; J22 12/9/91 AML): 38.47
enzyme activity ([4]; N99° normal): 45.00
enzyme activity ([4]; N191 normal): 73.20
enzyme activity ([4]; N192 normal): 43.67
enzyme activity ([4]; N193 normal): 63.33
enzyme activity ([4]; N194 normal): 60.30
enzyme activity ([4]; N195 normal): 79.13
enzyme activity ([4]; N197 normal): 76.88
enzyme activity ([4]; N200 normal): 59.39
enzyme activity ([4]; N201 normal): 75.48
enzyme activity ([4]; N202 normal): 66.22
enzyme activity ([4]; N206 normal): 91.93
enzyme activity ([4]; P68 tachycardia): 100.00
enzyme activity ([4]; P69 pancreatic CA): 88.04
enzyme activity ([4]; P70 cirrhosis/hemobilia): 88.42
enzyme activity ([4]; P71 ac. pyelonephritis): 59.35

SMILES: [Ca+2].[Cl-].[Cl-] [calcium chloride]
inhibition of enzyme reaction with (H-L-Asp)2 rhodamine 110 [6]: inhibitory

SMILES: Br.Cc1ncc(C)n2nc(CCc3nc(-c4ccccc4)cn3C)nc12 [hydrogen bromide (HBr), hydrogen bromide]
effect on cells [7]: kills cells

enzymatic activity [8]: lost their enzymatic activity
SMILES: CC(C)C[C@H](N)C(=O)Nc1ccc2c(c1)Oc1cc(NC(=O)[C@@H](N)CC(C)C)ccc1C21OC(=O)c2ccccc21 [LEU, (Leu)2 Rho 110]
